From patent publication US5317101A, “Tricyclic heterocycles” (Imperial Chemical Industries PLC, priority 1991, dated 1994)

Legend:
[1] = target: T1, EP1 receptors (PGE2 -induced contractions of the ileum) (Cavia porcellus, UniProt A0A286XHJ6); assay: Test (a): in-vitro guinea pig ileum assay, inhibition of PGE2-induced contractions; format: cell-based; conditions: PGE2-induced contraction, read-out: pA2 value (converted)
T1 construct: ileum was immersed in oxygenated Krebs solution; from tissue; host or cells: guinea pig ileum
T1 sequence (A0A286XHJ6 1-405): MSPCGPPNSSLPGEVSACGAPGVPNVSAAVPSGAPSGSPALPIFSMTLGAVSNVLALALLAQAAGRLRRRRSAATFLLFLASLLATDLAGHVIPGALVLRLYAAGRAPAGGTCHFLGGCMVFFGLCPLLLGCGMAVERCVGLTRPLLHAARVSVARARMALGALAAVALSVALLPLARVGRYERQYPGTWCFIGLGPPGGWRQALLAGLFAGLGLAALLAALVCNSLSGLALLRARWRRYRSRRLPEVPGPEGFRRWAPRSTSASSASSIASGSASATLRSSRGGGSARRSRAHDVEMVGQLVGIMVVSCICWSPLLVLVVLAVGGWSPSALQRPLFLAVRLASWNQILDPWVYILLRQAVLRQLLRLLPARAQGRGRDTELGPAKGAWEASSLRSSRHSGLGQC
Protocol: (a) an in-vitro guinea pig ileum assay which assesses the inhibitory properties of a test compound against PGE2 -induced contractions of the ileum; ileum was immersed in oxygenated Krebs solution containing indomethacin (4 μg/ml) and atropine (1 μM) and which was maintained at 37° C.; the ileum was subject to a tension of 1 g; a control dose response curve for PGE2 -induced contraction of the ileum was obtained; test compound (dissolved in dimethylsulphoxide) was added to the Krebs solution and a dose response curve for the PGE2 - induced contraction of the ileum in the presence of the test compound was obtained; the pA2 value for the test compound was calculated;
Prostanoid receptors and in particular receptors for PGE2 have been tentatively characterised by Kennedy et al. (Advances in Prostaglandin, Thromboxane and Leukotriene Research, 1983, 11, 327).

[2] = test system: abdominal constriction induced by the intraperitoneal administration of phenylbenzoquinone; assay: Test (b): in-vivo assay in mice, PBQ-induced abdominal constriction; conditions: 100 mg/kg, oral dosing
Text: (b) an in-vivo assay in mice which assesses the inhibitory properties of a test compound against abdominal constriction induced by the intraperitoneal administration of phenylbenzoquinone (hereinafter PBQ) using the procedure disclosed in European Patent Application No. 0218077.

PGE2 receptors = conditions: guinea pig ileum or dog fundus; cited from earlier work

| SMILES | Kb [1] | activity in Test (b) [2] | effect on PGE2 action (PGE2 receptors) |
| --- | --- | --- | --- |
| O=C(O)c1ccc(CN2Cc3ccccc3Oc3ccc(Cl)cc32)s1 [5-(8-chloro-10,11-dihydrodibenzo[b,f][1,4]oxazepin-10-ylmethyl)thiophene-2-carboxylic acid] | 31.6 nM |  |  |
| O=C(O)c1ccc(CN2Cc3ccccc3Nc3ccccc32)s1 [5-(10,11-dihydrodibenzo[b,e][1,4]diazepin-10-ylmethyl)thiophene-2-carboxylic acid] | 25.1 nM | significant activity |  |
| CC(=O)NNC(=O)N1Cc2ccccc2Oc2ccc(Cl)cc21 [SC-19220] |  |  | blocks the effect of PGE2 |
